Measurements from PubChem BioAssay (NCI).
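Briefly, cells in 96-well plates were exposed to five compound concentrations for 48 h, and endpoints were estimated by linear interpolation. TGI marks complete inhibition of growth.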

Legend:
Assay in all cases: NCI anticancer screen, dose series, 48 h
786-0 renal = test system: 786-0 renal
A498 renal = test system: A498 renal
A549 NSCLC = test system: A549 NSCLC
ACHN renal = test system: ACHN renal
BT-549 breast = test system: BT-549 breast
CAKI-1 renal = test system: CAKI-1 renal
CCRF-CEM leukemia = test system: CCRF-CEM leukemia
COLO 205 colon = test system: COLO 205 colon
DU-145 prostate = test system: DU-145 prostate
EKVX NSCLC = test system: EKVX NSCLC
HCT-116 colon = test system: HCT-116 colon
HCT-15 colon = test system: HCT-15 colon
HL-60(TB) leukemia = test system: HL-60(TB) leukemia
HOP-62 NSCLC = test system: HOP-62 NSCLC
HOP-92 NSCLC = test system: HOP-92 NSCLC
HS 578T breast = test system: HS 578T breast
HT29 colon = test system: HT29 colon
IGROV1 ovarian = test system: IGROV1 ovarian
K-562 leukemia = test system: K-562 leukemia
KM12 colon = test system: KM12 colon
LOX IMVI melanoma = test system: LOX IMVI melanoma
M14 melanoma = test system: M14 melanoma
MALME-3M melanoma = test system: MALME-3M melanoma
MCF7 breast = test system: MCF7 breast
MDA-MB-231 breast = test system: MDA-MB-231 breast
MDA-MB-435 = test system: MDA-MB-435
MDA-N = test system: MDA-N
MOLT-4 leukemia = test system: MOLT-4 leukemia
NCI-H226 lung = test system: NCI-H226 lung
NCI-H23 lung = test system: NCI-H23 lung
NCI-H460 lung = test system: NCI-H460 lung
NCI-H522 lung = test system: NCI-H522 lung
NCI/ADR-RES ovarian = test system: NCI/ADR-RES ovarian
OVCAR-3 ovarian = test system: OVCAR-3 ovarian
OVCAR-4 ovarian = test system: OVCAR-4 ovarian
OVCAR-5 ovarian = test system: OVCAR-5 ovarian
OVCAR-8 ovarian = test system: OVCAR-8 ovarian
PC-3 prostate = test system: PC-3 prostate
RPMI-8226 leukemia = test system: RPMI-8226 leukemia
RXF 393 renal = test system: RXF 393 renal
SF-268 CNS = test system: SF-268 CNS
SF-295 CNS = test system: SF-295 CNS
SF-539 CNS = test system: SF-539 CNS
SK-MEL-2 melanoma = test system: SK-MEL-2 melanoma
SK-MEL-28 melanoma = test system: SK-MEL-28 melanoma
SK-MEL-5 melanoma = test system: SK-MEL-5 melanoma
SK-OV-3 ovarian = test system: SK-OV-3 ovarian
SN12C renal = test system: SN12C renal
SNB-19 CNS = test system: SNB-19 CNS
SNB-75 CNS = test system: SNB-75 CNS
SW-620 colon = test system: SW-620 colon
T-47D breast = test system: T-47D breast
TK-10 renal = test system: TK-10 renal
U251 CNS = test system: U251 CNS
UACC-257 melanoma = test system: UACC-257 melanoma
UACC-62 melanoma = test system: UACC-62 melanoma
UO-31 renal = test system: UO-31 renal

COC(=O)c1ccccc1Nc1ccccc1C(=O)OC was tested, and the TGI (786-0 renal) was > 100 µM, the TGI (A498 renal) was > 100 µM and the TGI (A549 NSCLC) was > 100 µM. For the same compound, the TGI (ACHN renal) was > 100 µM, the TGI (BT-549 breast) was > 100 µM and the TGI (CAKI-1 renal) was > 100 µM. The TGI (CCRF-CEM leukemia) was > 100 µM, the TGI (COLO 205 colon) was > 100 µM and the TGI (DU-145 prostate) was > 100 µM. For the same compound, the TGI (EKVX NSCLC) was > 100 µM, the TGI (HCT-116 colon) was > 100 µM and the TGI (HCT-15 colon) was > 100 µM. For the same compound, the TGI (HL-60(TB) leukemia) was > 100 µM, the TGI (HOP-62 NSCLC) was > 100 µM and the TGI (HOP-92 NSCLC) was 75.5 µM. The TGI (HS 578T breast) was 72.2 µM, the TGI (HT29 colon) was > 100 µM and the TGI (IGROV1 ovarian) was > 100 µM. The TGI (K-562 leukemia) was > 100 µM, the TGI (KM12 colon) was > 100 µM and the TGI (LOX IMVI melanoma) was > 100 µM. For the same compound, the TGI (M14 melanoma) was > 100 µM, the TGI (MALME-3M melanoma) was 96.8 µM and the TGI (MCF7 breast) was > 100 µM. The TGI (MDA-MB-231 breast) was > 100 µM, the TGI (MDA-MB-435) was > 100 µM and the TGI (MDA-N) was > 100 µM. The TGI (MOLT-4 leukemia) was > 100 µM, the TGI (NCI-H226 lung) was 71.6 µM and the TGI (NCI-H23 lung) was > 100 µM. For the same compound, the TGI (NCI-H460 lung) was > 100 µM, the TGI (NCI-H522 lung) was > 100 µM and the TGI (NCI/ADR-RES ovarian) was > 100 µM. The TGI (OVCAR-3 ovarian) was > 100 µM, the TGI (OVCAR-4 ovarian) was > 100 µM and the TGI (OVCAR-5 ovarian) was > 100 µM. For the same compound, the TGI (OVCAR-8 ovarian) was > 100 µM, the TGI (PC-3 prostate) was > 100 µM and the TGI (RPMI-8226 leukemia) was > 100 µM. For the same compound, the TGI (RXF 393 renal) was > 100 µM, the TGI (SF-268 CNS) was > 100 µM and the TGI (SF-295 CNS) was > 100 µM. For the same compound, the TGI (SF-539 CNS) was > 100 µM, the TGI (SK-MEL-2 melanoma) was > 100 µM and the TGI (SK-MEL-28 melanoma) was > 100 µM. The TGI (SK-MEL-5 melanoma) was > 100 µM, the TGI (SK-OV-3 ovarian) was > 100 µM and the TGI (SN12C renal) was > 100 µM. The TGI (SNB-19 CNS) was > 100 µM, the TGI (SNB-75 CNS) was > 100 µM and the TGI (SW-620 colon) was > 100 µM. The TGI (T-47D breast) was > 100 µM, the TGI (TK-10 renal) was > 100 µM and the TGI (U251 CNS) was > 100 µM. The TGI (UACC-257 melanoma) was > 100 µM and the TGI (UACC-62 melanoma) was > 100 µM.
With Cc1ccc(S(=O)(=O)NC(=O)NCC(=O)O)cc1 the TGI (786-0 renal) was > 100 µM, the TGI (A549 NSCLC) was > 100 µM and the TGI (ACHN renal) was > 100 µM. The TGI (BT-549 breast) was > 100 µM, the TGI (CCRF-CEM leukemia) was > 100 µM and the TGI (COLO 205 colon) was > 100 µM. The TGI (DU-145 prostate) was > 100 µM, the TGI (HCT-116 colon) was > 100 µM and the TGI (HCT-15 colon) was > 100 µM. The TGI (HL-60(TB) leukemia) was > 100 µM, the TGI (HOP-62 NSCLC) was > 100 µM and the TGI (HOP-92 NSCLC) was > 100 µM. The TGI (HS 578T breast) was > 100 µM, the TGI (HT29 colon) was > 100 µM and the TGI (IGROV1 ovarian) was > 100 µM. The TGI (K-562 leukemia) was > 100 µM, the TGI (KM12 colon) was > 100 µM and the TGI (LOX IMVI melanoma) was > 100 µM. For the same compound, the TGI (M14 melanoma) was > 100 µM, the TGI (MALME-3M melanoma) was > 100 µM and the TGI (MCF7 breast) was > 100 µM. The TGI (MDA-MB-231 breast) was > 100 µM, the TGI (MDA-N) was > 100 µM and the TGI (MOLT-4 leukemia) was > 100 µM. The TGI (NCI-H23 lung) was > 100 µM, the TGI (NCI-H460 lung) was > 100 µM and the TGI (NCI-H522 lung) was > 100 µM. The TGI (NCI/ADR-RES ovarian) was > 100 µM, the TGI (OVCAR-4 ovarian) was > 100 µM and the TGI (OVCAR-5 ovarian) was > 100 µM. For the same compound, the TGI (OVCAR-8 ovarian) was > 100 µM, the TGI (PC-3 prostate) was > 100 µM and the TGI (RPMI-8226 leukemia) was > 100 µM. For the same compound, the TGI (RXF 393 renal) was > 100 µM, the TGI (SF-268 CNS) was > 100 µM and the TGI (SF-295 CNS) was > 100 µM. The TGI (SF-539 CNS) was > 100 µM, the TGI (SK-MEL-2 melanoma) was > 100 µM and the TGI (SK-MEL-28 melanoma) was > 100 µM. For the same compound, the TGI (SK-MEL-5 melanoma) was > 100 µM, the TGI (SK-OV-3 ovarian) was > 100 µM and the TGI (SN12C renal) was > 100 µM. The TGI (SNB-19 CNS) was > 100 µM, the TGI (SNB-75 CNS) was > 100 µM and the TGI (SW-620 colon) was > 100 µM. The TGI (T-47D breast) was > 100 µM, the TGI (TK-10 renal) was > 100 µM and the TGI (U251 CNS) was > 100 µM. For the same compound, the TGI (UACC-257 melanoma) was > 100 µM, the TGI (UACC-62 melanoma) was > 100 µM and the TGI (UO-31 renal) was > 100 µM.
